Measurements published in the supplement of paper PMC10307832.

How the values were obtained:
Experiment in all cases: relative viability (nuclei count vs DMSO), 5 days (fraction); higher = more cells survive
RO-3306 + Pictilisib = compound: C1=CC2=C(C=CC(=C2)C=C3C(=O)NC(=NCC4=CC=CS4)S3)N=C1 [RO-3306] + CS(=O)(=O)N1CCN(Cc2cc3nc(-c4cccc5[nH]ncc45)nc(N4CCOCC4)c3s2)CC1 [Pictilisib] (partner 1 µM)
How it was run: (§1)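 One day after seeding in 1536-well plates, lung cancer cell lines were dosed by pin tool. Dosing was either single-drug or a fixed anchor-drug dose plus five library-drug doses (not always all listed) in √10 steps. After 5 days, nuclei were stained in one fix-and-stain step and counted on 4× images, and relative viability is the nuclei count of treated wells over that of vehicle wells, given as the median of duplicate plates.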

RO-3306 + Navitoclax = compound: C1=CC2=C(C=CC(=C2)C=C3C(=O)NC(=NCC4=CC=CS4)S3)N=C1 [RO-3306] + CC1(C)CCC(c2ccc(Cl)cc2)=C(CN2CCN(c3ccc(C(=O)NS(=O)(=O)c4ccc(N[C@H](CCN5CCOCC5)CSc5ccccc5)c(S(=O)(=O)C(F)(F)F)c4)cc3)CC2)C1 [Navitoclax] (partner 0.5 µM)
How it was run: as §1

[1] = compound: O=S(=O)(c1ccccc1)N(CC(F)(F)F)c1ccc(C(O)(C(F)(F)F)C(F)(F)F)cc1 + CC(=O)Nc1cccc(-n2c(=O)n(C3CC3)c(=O)c3c(Nc4ccc(I)cc4F)n(C)c(=O)c(C)c32)c1 [Trametinib] (partner 0.02 µM)
How it was run: as §1

[2] = compound: O=S(=O)(c1ccccc1)N(CC(F)(F)F)c1ccc(C(O)(C(F)(F)F)C(F)(F)F)cc1 + CC1(C)CCC(c2ccc(Cl)cc2)=C(CN2CCN(c3ccc(C(=O)NS(=O)(=O)c4ccc(N[C@H](CCN5CCOCC5)CSc5ccccc5)c(S(=O)(=O)C(F)(F)F)c4)cc3)CC2)C1 [Navitoclax] (partner 0.5 µM)
How it was run: as §1

[3] = compound: O=S(=O)(c1ccccc1)N(CC(F)(F)F)c1ccc(C(O)(C(F)(F)F)C(F)(F)F)cc1 + COc1cc2c(Oc3ccc(NC(=O)C4(C(=O)Nc5ccc(F)cc5)CC4)cc3F)ccnc2cc1OCCCN1CCOCC1 [Foretinib] (partner 0.25 µM)
How it was run: as §1

Cell Line UMC-11 has a relative viability (RO-3306 + Pictilisib; first compound 0.01 µM) of 1.16, a relative viability (RO-3306 + Pictilisib; first compound 0.03162 µM) of 0.729 and a relative viability (RO-3306 + Pictilisib; first compound 0.1 µM) of 0.811. For the same cell line, the relative viability (RO-3306 + Pictilisib; first compound 0.3162 µM) was 0.859, the relative viability (RO-3306 + Pictilisib; first compound 1 µM) was 0.617 and the relative viability (RO-3306 + Navitoclax; first compound 0.01 µM) was 0.325. The relative viability (RO-3306 + Navitoclax; first compound 0.03162 µM) was 0.312, the relative viability (RO-3306 + Navitoclax; first compound 0.1 µM) was 0.305 and the relative viability (RO-3306 + Navitoclax; first compound 0.3162 µM) was 0.321. It also gave a relative viability (RO-3306 + Navitoclax; first compound 1 µM) of 0.319, a relative viability ([1]; first compound 0.8 µM) of 0.796 and a relative viability ([1]; first compound 2.53 µM) of 0.711. For the same cell line, the relative viability ([1]; first compound 8 µM) was 0.862, the relative viability ([2]; first compound 0.8 µM) was 0.335 and the relative viability ([2]; first compound 2.53 µM) was 0.352. The relative viability ([2]; first compound 8 µM) was 0.37, the relative viability ([3]; first compound 0.8 µM) was 1.16 and the relative viability ([3]; first compound 2.53 µM) was 1.12. It also gave a relative viability ([3]; first compound 8 µM) of 1.08.
